Among the data in PubChem BioAssay AID179 (DTP/NCI, 2004) are EC50, IC50 and outcome values, retold here.

SMILES strings stand for the structures. Active and inactive are the calls of the source.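 Rule for the calls: active = compounds giving half or more protection of infected cells from virus-caused growth loss, again on retest; inactive = the rest.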

This assay concerns CEM cells HIV-1 protection, formazan growth assay. As to the kind of experiment: NCI AIDS Antiviral Assay. Particulars: for IC50: measured here: growth of uninfected CEM cells. A digest of the protocol: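 Human CEM cells, uninfected and HIV-1-infected, exposed to five drug concentrations; growth measured by soluble formazan assay and scored as percent protection from infection, with protecting compounds retested.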

The term EC50 denotes the concentration at which the effect is half-maximal. By IC50 is commonly meant the midpoint of a concentration-inhibition curve. As to `O=c1cn[nH]c2cc(Cl)ccc12`, the EC50 is above 117 µM and the IC50 is above 117 µM.
For `O=C(CCCCCCCCC(=O)NCC1(c2ccccc2)CCN(Cc2ccccc2)CC1)NCC1(c2ccccc2)CCN(Cc2ccccc2)CC1`, the EC50 was above 200 µM and the concentration for half-maximal inhibition (IC50) was 102 µM.
The matching figures for `Clc1ccc(SCCSCCCCCCCCCCSCCSc2ccc(Cl)cc2)cc1`: above 9.55 µM and above 9.55 µM.
In the same order, the values of `OCC1CC(F)C(n2cnc3c(F)ncnc32)O1` (centres undefined) are above 49 µM and 36.3 µM.
As to `CC(=O)Nc1cnc2c(nc3cc(C)ccn32)c1C`, the EC50 was above 74.1 µM and the IC50 is above 74.1 µM.
Regarding `COP(=O)(Cc1ccc(/C=C/C#N)o1)OC`, the EC50 was above 200 µM and the IC50 was above 200 µM.
`NS(=O)(=O)c1ccc(CNC(=O)c2ccccc2SC(=O)CCCCC[n+]2ccccc2)cc1`: the EC50 was 2.14 µM and the IC50 was found to be 39.8 µM.
Take `CC1(C)OC2C=C(COCc3ccccc3)C[C@H]3[C@@H]2C(O1)[C@@H]1OC[C@H]3O1` (some centres undefined): the outcome was inactive.
As to `O=C1c2ccccc2C(=O)N1Cc1ccccc1-c1c2nc(c(-c3ccccc3CN3C(=O)c4ccccc4C3=O)c3ccc([nH]3)c(-c3ccccc3CN3C(=O)c4ccccc4C3=O)c3nc(c(-c4ccccc4CN4C(=O)c5ccccc5C4=O)c4ccc1[nH]4)C=C3)C=C2`, the EC50 is above 4.17 µM and the 50% inhibitory concentration (IC50) was above 4.17 µM.
On to `COc1cc(C2c3cc4c(c(O)c3C(=O)C3CCC(=O)N32)OCO4)cc(OC)c1OC` (centres undefined), for which the EC50 was above 200 µM and the IC50 turned out to be 20.9 µM.
The matching figures for `Cc1ccc([N+](=O)[O-])c2c(NCCNC(=O)Cn3ccnc3[N+](=O)[O-])ccnc12`: above 100 µM and 79.4 µM.
In the same order, the values of `O=c1[nH]n(CCc2ccccc2CCl)c2ccc([N+](=O)[O-])cc12` are above 200 µM and 50.1 µM.
The matching figures for `CC(=O)NC1C(OCc2ccccc2)OC(CO)C(O)C1OC(C)C(=O)NC(C(=O)NC(CCC(=O)NCCCCNc1c2ccccc2nc2cccc([N+](=O)[O-])c12)C(N)=O)C(C)C` (centres undefined): above 100 µM and 1.12 µM.
In the case of `COc1ccc(CCn2nccc2C)cc1`, the EC50 was above 200 µM and the IC50 is above 200 µM.
For the molecule `CCCCCc1cc2cc(O)cc(Oc3c(O)cc(O)c(C(=O)O)c3CCCCC)c2c(=O)o1`, the EC50 was above 200 µM and the IC50 amounted to 34.7 µM.
The matching figures for `COc1ccc(CCNC(=O)Cc2cc(OC)c(OC)cc2CO)cc1OC`: above 200 µM and 195 µM.
In the same order, the values of `COCC(/C=N/N=C(N)N)=N\N=C(N)N` are above 32.4 µM and above 32.4 µM.
In the same order, the values of `O=C1C2CC=CCC2C(=O)N1n1c(-c2ccccc2)n[nH]c1=O` (centres undefined) are above 200 µM and above 200 µM.
With `COc1ccc2c(c1)nc1n2C(c2c(F)cccc2Cl)SC1` (centres undefined), the EC50 was above 200 µM and the IC50 is 4.17 µM.
The matching figures for `CC1CN=C(N(C)C(=O)Nc2ccc(Cl)c(Cl)c2)S1` (centres undefined): above 200 µM and 37.2 µM.
Take `CC[C@@H](C)[C@H](NC(=O)[C@H](CCCCN)NC(=O)[C@H](CCCCN)NC(=O)[C@H](CC(C)C)NC(=O)[C@@H]1CCCN1C(=O)[C@@H]1CCCN1C(=O)[C@@H](NC(=O)[C@H](CC(C)C)NC(=O)[C@H](CCCCN)NC(=O)[C@H](CCCN=C(N)N)NC(=O)[C@@H](N)C(C)C)[C@@H](C)O)C(=O)O`: the result was inactive.
For `CCOC(=O)C1(C#N)OC(=O)c2cnccc21` (centres undefined), the EC50 is above 200 µM and the 50% inhibitory concentration (IC50) was above 200 µM.
Regarding `c1ccc(-c2nnc3sc4ccccc4n23)cc1`, the EC50 is above 200 µM and the IC50 is above 200 µM.
With `Cc1ccc(C(N)=O)cc1N=NN(C)C`, the EC50 was above 457 µM and the IC50 was determined as 269 µM.
The matching figures for `COc1ccc2c(c1)-c1c(c3cc(OC)ccc3n1CCCN(C)C)CC2`: above 200 µM and 5.5 µM.
In the same order, the values of `CC1CCC2(CC1)CC(=O)N(N1CCOCC1)C(=O)C2` are above 200 µM and above 200 µM.
The matching figures for `O=C1C=CC(=O)c2nc3c(nc21)[nH]c1ccccc13`: above 26.3 µM and 13.2 µM.
On to `CC1(C)Cc2cc(C(=O)O)c3c(c2C1=O)COCC3`, for which the outcome was inactive.
For `S=P(c1ccccc1)(N1CCCCC1)N1CCCCC1`, the EC50 was above 43.7 µM and the IC50 was above 43.7 µM.
Regarding `Cc1ccc(N(C)S(=O)(=O)c2ccccc2[N+](=O)[O-])cc1`, the EC50 is 10.7 µM and the IC50 is 36.3 µM.
The matching figures for `COc1cc(/C=N/NC2=NCCCCN2)ccc1O`: above 200 µM and above 200 µM.
The matching figures for `Cc1ccc(OCC2OC(n3cnc4nc(Nc5ccc(Cl)c(Cl)c5)nc(Cl)c43)CC2Oc2ccc(C)cc2)cc1` (centres undefined): above 100 µM and above 100 µM.
On to `N#Cc1nc2ccccc2nc1N1CCN(c2ccc([N+](=O)[O-])cc2)CC1`, for which the EC50 was above 200 µM and the IC50 is above 200 µM.
For the molecule `O=c1[nH]c2nc3ccccc3c(=O)n2/c1=C/c1ccco1`, the EC50 is above 200 µM and the IC50 was above 200 µM.
For the molecule `CC(C)CCC[C@@H](C)[C@H]1CC[C@H]2[C@@H]3CCC4C[C@@H](OP(=O)(O)OCCC=C(c5cc(Cl)c(O)c(C(=O)O)c5)c5cc(Cl)c(O)c(C(=O)O)c5)CC[C@]4(C)[C@H]3CC[C@]12C` (some centres undefined), the EC50 was above 200 µM and the IC50 is 33.9 µM.
In the same order, the values of `COC(=O)[C@H](C)N(C)C(=O)[C@H](C)N1[C@@H](c2ccccc2)COC1(C)C` are above 200 µM and above 200 µM.
The matching figures for `CC1C(Cl)(Cl)C1(C)/C=C/C1C(C)(C)C1(Cl)Cl` (centres undefined): above 200 µM and 91.2 µM.
Take `C[CH2][Sn]1([CH2]C)[O]C2C(O)OC(CO)C(O)C2[O]1` (centres undefined): the EC50 was above 200 µM and the IC50 is 3.16 µM.
The matching figures for `CCCc1cc(=O)oc2c3c(c4c(c12)OC(C)(C)C=C4)O[C@H](C)[C@@H](C)[C@@H]3OC(C)=O`: 1.7 µM and 26.9 µM.
In the same order, the values of `CC1(C(=O)O)CCC(C(=O)O)C(C)(C)O1` (centres undefined) are above 200 µM and above 200 µM.
With `Cc1cc(Cl)ccc1Nc1nc2c(s1)C(=O)c1ccccc1C2=O`, the result was inactive.
As for `O=C(OCCN1CCCC1)c1cc2ccccc2[nH]1`, the EC50 was above 200 µM and the IC50 is above 100 µM.
In the same order, the values of `N#C/C(=C/c1ccc[nH]1)P(=O)(O)O` are above 1260 µM and 724 µM.
As to `COC(C(=O)CN(C)C)(c1ccccc1)c1ccccc1`, the EC50 is above 200 µM and the IC50 stood at 141 µM.
The matching figures for `CCN(CC)CCOc1ccccc1/C=C/c1noc2ccccc12`: above 200 µM and 29.5 µM.
In the same order, the values of `CC(C)Cc1nc(-c2cc3ccccc3[nH]2)c(CC(C)C)nc1-c1cc2ccccc2[nH]1` are above 4.68 µM and above 4.68 µM.
In the same order, the values of `COc1c(C(C)C)cc2c3c1OC(=O)[C@@]31CCCC(C)(C)C1CC2` (some centres undefined) are above 200 µM and 30.9 µM.
Regarding `Cc1cc(=O)n2nc(CN3CCCCC3)sc2n1`, the EC50 was above 200 µM and the IC50 came to 174 µM.
In the same order, the values of `C/C(=N\N=C(\[Se])N1CCN(c2ccccn2)CC1)c1ccccn1` are above 36.3 µM and 0.0155 µM.
In the same order, the values of `O=[N+]1[C@H](c2ccccc2)[C@H](c2ccccc2)N1[O-]` are above 200 µM and 11.5 µM.
`O=c1[nH]cnc2sc(Nc3ccccc3)nc12`: the outcome was inactive.
For `O=S(=O)(O)c1cc(Cl)c(O)c2ncc(Cl)cc12`, the EC50 was above 200 µM and the IC50 was found to be 42.7 µM.
The matching figures for `O=C1NC(Cc2ccc(O)cc2)C(=O)NC1Cc1ccc(O)cc1` (centres undefined): above 100 µM and above 100 µM.
For `CCCCCCCCCCCCCCCCCC(=O)OCCO`, the outcome was inactive.
Take `COc1ccc2nc3ccccc3c(NCCCCCN(CCCl)CCCl)c2c1`: the EC50 was above 245 µM and the IC50 was 0.282 µM.
In the same order, the values of `COC1C2CC3C4(CCC5C6(C)CCCC53C(C14)N(C)C6)CC21CCC23C4C=C5C6=C(CCC5(CC42)C3O1)C1(C)CC(C6)CN(C)C1` (centres undefined) are 0.38 µM and 18.6 µM.
In the same order, the values of `O=C1c2c(c3c4ccccc4n(COCCO)c3c3[nH]c4ccccc4c23)C(=O)N1Cc1ccccc1` are above 15.8 µM and 6.92 µM.
For the molecule `O=C(O)[C@@H]1CSC(C(O)C(O)C(O)CO)N1` (some centres undefined), the EC50 was above 355 µM and the IC50 is above 355 µM.
On to `COC(=O)c1c(C(=O)OC)c2ccccn2c1-c1cc(OC)c(Br)c(=O)o1`, for which the EC50 is above 200 µM and the IC50 is above 200 µM.
Regarding `COC1CC(n2ccc(=O)[nH]c2=O)OC1CO` (centres undefined), the EC50 was above 200 µM and the IC50 was above 200 µM.
Consider `O=C1C(c2ccc([N+](=O)[O-])cc2)=C(Cl)C(=O)c2c(O)cccc21`, for which the EC50 is above 398 µM and the IC50 amounted to 8.71 µM.
In the same order, the values of `C1=NCCN=Cc2ccccc2NCCNc2ccccc21` are above 200 µM and 91.2 µM.
In the same order, the values of `O=c1onc2n1-c1cc(Cl)ccc1C(=S)N1CSCC21` (centres undefined) are above 200 µM and 105 µM.
The matching figures for `O=c1c2cccc3cccc(c4n1CCCN=4)c32`: above 200 µM and 17 µM.
The molecule `O=C(O)c1ccc(NCc2nc3ccccc3[nH]2)cc1` came in with an EC50 above 200 µM and an IC50 above 200 µM.
Regarding `[Cl][Ho]([Cl])[Cl]`, the EC50 is above 162 µM and the IC50 was above 162 µM.
Consider `S=c1nc[nH]c2nc[nH]c12`, for which the EC50 was above 234 µM and the half-maximal inhibitory concentration (IC50) stood at 1.51 µM.
The matching figures for `c1ccc2c(c1)SCCCSCCCS2`: above 28.2 µM and above 28.2 µM.
In the same order, the values of `CCOc1ccc(N2CC(=O)N3CCCC(C)N3C(=O)C2)cc1` (centres undefined) are above 200 µM and 170 µM.
In the case of `O=[N+]([O-])c1ccc(N=Nc2ccc3c(c2)-c2ccccc2C3=P(c2ccccc2)(c2ccccc2)c2ccccc2)cc1`, the EC50 was above 200 µM and the IC50 was 33.1 µM.
